Values quoted from earlier work in US8012958B2, “Methods for treating anxiety related disorders” (Hythlam, Inc., priority 2005, dated 2011).
Read-outs that look alike come from different tables or passages of the source.

How the values were obtained:
[1] = not given; remark: listed apart in the source
[2] = overdose
[3] = IM 2 to 3 mg (0.02 to 0.05 mg/kg); patients 60 years or older without concomitant narcotics
[4] = molecular target: T1, monoamine oxidase B (MAO-B) (Homo sapiens, UniProt P27338); details: single 300 mg dose
T1 sequence (P27338 1-520): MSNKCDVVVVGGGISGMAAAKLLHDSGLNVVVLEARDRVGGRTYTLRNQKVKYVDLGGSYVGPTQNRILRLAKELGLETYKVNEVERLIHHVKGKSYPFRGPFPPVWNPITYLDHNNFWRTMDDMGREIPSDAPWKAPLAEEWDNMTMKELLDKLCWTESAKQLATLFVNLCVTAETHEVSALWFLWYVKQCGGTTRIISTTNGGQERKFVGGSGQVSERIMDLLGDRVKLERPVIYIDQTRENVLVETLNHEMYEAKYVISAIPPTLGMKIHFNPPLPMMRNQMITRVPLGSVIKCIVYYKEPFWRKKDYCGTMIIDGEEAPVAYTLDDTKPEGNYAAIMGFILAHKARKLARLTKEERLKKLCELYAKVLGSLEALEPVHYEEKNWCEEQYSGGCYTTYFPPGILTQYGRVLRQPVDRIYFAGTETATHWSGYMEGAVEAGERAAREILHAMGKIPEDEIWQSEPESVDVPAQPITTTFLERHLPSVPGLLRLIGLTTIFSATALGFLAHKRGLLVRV

[5] = molecular target: T2, monoamine oxidase A (MAO-A) (Homo sapiens, UniProt P21397); details: single 300 mg dose
T2 sequence (P21397 1-527): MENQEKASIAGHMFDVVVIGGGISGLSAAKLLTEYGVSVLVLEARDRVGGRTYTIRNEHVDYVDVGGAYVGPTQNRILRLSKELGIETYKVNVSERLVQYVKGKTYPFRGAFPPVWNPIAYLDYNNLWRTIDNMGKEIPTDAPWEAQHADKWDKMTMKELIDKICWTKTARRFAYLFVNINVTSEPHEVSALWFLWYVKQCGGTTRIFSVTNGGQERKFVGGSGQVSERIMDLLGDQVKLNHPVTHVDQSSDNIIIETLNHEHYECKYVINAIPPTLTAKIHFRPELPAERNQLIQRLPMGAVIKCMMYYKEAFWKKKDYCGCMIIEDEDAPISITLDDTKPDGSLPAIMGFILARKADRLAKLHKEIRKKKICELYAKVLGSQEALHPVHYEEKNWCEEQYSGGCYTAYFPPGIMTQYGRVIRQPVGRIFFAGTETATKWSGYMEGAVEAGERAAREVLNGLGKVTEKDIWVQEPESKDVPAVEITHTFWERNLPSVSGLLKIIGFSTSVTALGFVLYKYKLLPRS

[6] = test system: GABAA receptor α4 subunit mRNA; details: for amount of α4 subunit mRNA after withdrawal of the drug: withdrawal after long-term exposure
[7] = test system: GABAA receptors that contain α4 or α6 subunits
[8] = test system: GABAA receptors; details: 3 μM flumazenil; ethanol withdrawn cells

CCC1(c2ccccc2)C(=O)NC(=O)NC1=O.CNC(C)CC1CCCCC1 [BARBEXACLONE]
dose equivalent to 60 mg of phenobarbital (in vivo): 100 mg of barbexaclone is equivalent to 60 mg of phenobarbital.

CCCCC1(CC)C(=O)NC(=O)NC1=O [BUTOBARBITAL]
dose equivalent to 10 mg of Diazepam (butobarbital): 50 mg of Butobarbital is equivalent to 10 mg of Diazepam; Acc. to

COc1ccc2c3c1O[C@H]1[C@@H](O)C=C[C@H]4[C@@H](C2)N(C)CC[C@@]341 [CODEINE]
dose about equal to 30 mg (oral) of morphine (oral): 200 mg (oral) of codeine is about equal to 30 mg (oral) of morphine.

C[C@]12C=CC(=O)N[C@@H]1CC[C@@H]1[C@@H]2CC[C@]2(C)[C@@H](C(=O)Nc3cc(C(F)(F)F)ccc3C(F)(F)F)CC[C@@H]12 [DUTASTERIDE, (5α,17β)-N-{2,5 bis(trifluoromethyl)phenyl}-3-oxo-4-azaandrost-1-ene-17-carboxamide]
adverse effects compared with therapeutic dose of 0.5 mg ([1]; clinical study, 5 mg daily for 6 months): subjects for 6 months with no additional adverse effects to those

CCCC(C)(COC(N)=O)COC(N)=O [MEPROBROMATE]
ingested amount with which survival has been reported (as much as) [2]: much as 40 g.

Cc1ncc2n1-c1ccc(Cl)cc1C(c1ccccc1F)=NC2 [MIDAZOLAM]
sedation during the preoperative period [3]: (0.02 to 0.05 mg/kg) of VERSED produced adequate sedation

O=C(NCCN1CCOCC1)c1ccc(Cl)cc1 [Moclobemide]
inhibition of monoamine oxidase B (MAO-B) [4]: oxidase A (MAO-A) and 30% of monoamine oxidase B (MAO-B), | inhibition of monoamine oxidase A (MAO-A) [5]: A single 300 mg dose of moclobemide inhibits 80% of monoamine

CC1CN2CC(=O)Nc3ccc(Cl)cc3C2(c2ccccc2)O1 (stereo not shown) [OXAZOLAM]
dose equivalent to 10 mg of Diazepam (oxazolam): 20 mg is equivalent to 10 mg of Diazepam.

CCN(C(C)=O)c1cccc(-c2ccnc3c(C#N)cnn23)c1 [ZALPELON]
amount of α4 subunit mRNA after withdrawal of the drug [6]: marked increase

CN1C(=O)CN=C(c2ccccc2)c2cc(Cl)ccc21 [diazepam]
effect on the ethanol withdrawal-induced increase in abundance of α4 subunit mRNA ([6]; exposure at the time of ethanol withdrawal): antagonizes the withdrawal-induced increase | amount of α4 subunit mRNA after withdrawal of the drug [6]: marked increase | affinity for or efficacy at GABAA receptors that contain α4 or α6 subunits [7]: no affinity for or efficacy

CCOC(=O)c1ncn2c1CN(C)C(=O)c1cc(F)ccc1-2 [flumazenil, ethyl 8-fluoro-5,6-dihydro-5-methyl-6-oxo-4H-imidazo-[1,5-a][1,4]benzodiazepine-3-carboxylate]
adverse effect on the nervous system ([1]; human, in vivo): causing increased agitation and anxiety | modulation of the GABA evoked Cl- current [8]: potentiates the GABA evoked Cl— current

Cc1ccc(-c2nc3ccc(C)cn3c2CC(=O)N(C)C)cc1 [zolpidem]
amount of α4 subunit mRNA after withdrawal of the drug [6]: marked increase
